This is an account of results in patent US4970204A, “3-substituted nitro-steroid derivatives as 5-α-reductase inhibitors” (SmithKline Beecham Corporation, priority 1989, dated 1990).

Like-named read-outs stand apart in the source and are kept apart here.

For orientation: Ki means the equilibrium dissociation constant of an inhibitor or competing ligand from its target.

The assay concerns the target T1, human steroid 5-α-reductase (Homo sapiens, UniProt P31213).
T1 construct: Frozen human prostates were thawed and minced into small pieces; from tissue; host or cells: hyperplastic human prostate, washed 140,000×g particulate fraction
T1 sequence (P31213 1-254): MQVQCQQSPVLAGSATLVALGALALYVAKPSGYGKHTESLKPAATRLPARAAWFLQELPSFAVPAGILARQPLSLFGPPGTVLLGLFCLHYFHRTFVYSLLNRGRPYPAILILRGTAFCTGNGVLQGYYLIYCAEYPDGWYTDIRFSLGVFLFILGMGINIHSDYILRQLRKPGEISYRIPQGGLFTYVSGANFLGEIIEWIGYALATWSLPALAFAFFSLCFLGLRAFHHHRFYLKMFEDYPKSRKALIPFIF
The assay can be described thus: inhibition of human steroid 5-α-reductase using tissue from hyperplastic human prostates. Format: biochemical. On the procedure:
The tissue was homogenized in 3 to 5 volumes of 20 mM potassium phosphate, pH 6.5, buffer containing 0.33 M sucrose, 1 mM dithiothreitol, and 50 μM NADPH with a Brinkmann Polytron (Sybron Corporation, Westbury, N.Y.).
The resulting pellet was suspended in 20 mM potassium phosphate buffer, pH 6.5, containing 20% glycerol, 1 mM dithiothreitol, and 50 μM NADPH. The suspended particulate solution was stored at -80° C.
After incubating the solution at 37° C. for 20 to 30 minutes the reaction was quenched by the addition of 4 ml ethyl acetate and 0.25 μmol each of testosterone, dihydrotestosterone, androstanediol, and androstanedione as carriers. The organic layer was removed to a second test tube and evaporated to dryness in vacuo. […] The radiochemical content in the bands of the substrate and the products was determined with a BIOSCAN Imaging Scanner (Bioscan, Inc., Washington, D.C.). The percent of recovered radiolabel converted to product was calculated, from which enzyme activity was determined. All incubations were conducted such that no more than 12% of the substrate (testosterone) was consumed.
Assuming that the steroidal inhibitor is a competitive inhibitor against testosterone, a value for the inhibition constant (Ki) can be calculated from equation 1: […]

`CC(C)N(C(=O)[C@H]1CC[C@H]2[C@@H]3CC[C@H]4CC([N+](=O)[O-])=CC[C@]4(C)[C@H]3CC[C@]12C)C(C)C` [2-ene analogue, 17β-N,N-diisopropylcarboxamide-3-nitro-5-α-androst-2-ene] came in with a Ki of 250 nM. For `CC(C)N(C(=O)[C@H]1CC[C@H]2[C@@H]3CC[C@H]4C=C([N+](=O)[O-])CC[C@]4(C)[C@H]3CC[C@]12C)C(C)C` [17β-N,N-Diisopropylcarboxamide-3-nitro-5-α-androst-3-ene], for the setting “human prostatic particulate enzyme, [14C]-testosterone substrate, pH 5.0, 37° C., 20 to 30 minutes, Dixon plot, assuming competitive inhibition against testosterone, read-out: inhibition constant (Ki)”, the Ki amounted to 50 nM.
